Measurements taken from patent publication US4619925A, “3-Propenyl cephalosporin derivatives” (priority 1985, dated 1986).
Like-named read-outs stand apart in the source and are kept apart here.

Columns and labels:
E. coli Juhl [1] = test: Protective dose for mice infected with lethal inoculum; type: in vivo; details: 50% survival after five days
Description: (§1) The data in Table 2 are results of protective doses (PD50) for mice infected with a lethal inoculum of bacteria. Two different bacteria were employed in the studies, one a Gram-positive organism (S. aureus Smith) and the other a Gram-negative organism (E. coli Juhl). The PD50 is that dose which, when administered to a group of injected mice, results in 50% survival after five days. Normally untreated infected mice die within three days following injection of the lethal inoculum.

S. aureus Smith [2] = test: as above; type: in vivo; details: po, 50% survival after five days
Description: as §1

Mouse urinary recovery = type: in vivo, mice; details: mouse, urine, po, 20 mg/kg; for dose excreted at 24 h: p.o.
H. influenzae A9729 = test: In vitro activity against fastidious bacteria; type: cell-based; details: Haemophilus influenzae
Description: (§2) Table 5 contains comparative data for in vitro antibacterial activity against fastidious bacteria.

N. meningitidis A21497 = test: In vitro activity against fastidious bacteria; type: cell-based; details: Neisseria meningitidis, A21497
Description: as §2

S. pyogenes s-23 = test: In vitro activity against fastidious bacteria; type: cell-based; details: Streptococcus pyogenes, S23
Description: as §2

S. pneumoniae Type II = test: In vitro activity against fastidious bacteria; type: cell-based; details: Streptococcus pneumoniae
Description: as §2

N. meningitidis A21495 = test: In vitro activity against fastidious bacteria; type: cell-based; details: Neisseria meningitidis, A21495
Description: as §2

S. pyogenes A20065 = test: In vitro activity against fastidious bacteria; type: cell-based; details: Streptococcus pyogenes, A20065
Description: as §2

S. pneumoniae A9585 = test: In vitro activity against fastidious bacteria; type: cell-based; details: Streptococcus pneumoniae, A9585
Description: as §2

H. influenzae A22482 = test: In vitro activity against fastidious bacteria; type: cell-based; details: Haemophilus influenzae
Description: as §2

N. gonorrheae A15112 = test: In vitro activity against fastidious bacteria; type: cell-based
Description: as §2

S. pneumoniae A20759 = test: In vitro activity against fastidious bacteria; type: cell-based; details: Streptococcus pneumoniae, A20759
Description: as §2

H. influenzae A21523 = test: In vitro activity against fastidious bacteria; type: cell-based; details: Haemophilus influenzae, A21523
Description: as §2

N. meningitidis A20048 = test: In vitro activity against fastidious bacteria; type: cell-based; details: Neisseria meningitidis, A20048
Description: as §2

N. meningitidis A21487 = test: In vitro activity against fastidious bacteria; type: cell-based; details: Neisseria meningitidis, A21487
Description: as §2

H. influenzae A9833 = test: In vitro activity against fastidious bacteria; type: cell-based; details: Haemophilus influenzae
Description: as §2

H. influenzae A20193 = test: In vitro activity against fastidious bacteria; type: cell-based; details: Haemophilus influenzae, A20193
Description: as §2

N. gonorrheae A20155 = test: In vitro activity against fastidious bacteria; type: cell-based
Description: as §2

S. pyogenes A9604 = test: In vitro activity against fastidious bacteria; type: cell-based; details: Streptococcus pyogenes, A9604
Description: as §2

H. influenzae A20177 = test: In vitro activity against fastidious bacteria; type: cell-based; details: Haemophilus influenzae, A20177
Description: as §2

S. pyogenes A15040 = test: In vitro activity against fastidious bacteria; type: cell-based; details: Streptococcus pyogenes, A15040
Description: as §2

S. pyogenes A20201 = test: In vitro activity against fastidious bacteria; type: cell-based; details: Streptococcus pyogenes, A20201
Description: as §2

H. influenzae A22483 = test: In vitro activity against fastidious bacteria; type: cell-based; details: Haemophilus influenzae
Description: as §2

N. gonorrheae A20143 = test: In vitro activity against fastidious bacteria; type: cell-based
Description: as §2

S. pyogenes Dick = test: In vitro activity against fastidious bacteria; type: cell-based; details: Streptococcus pyogenes
Description: as §2

N. gonorrheae A20154 = test: In vitro activity against fastidious bacteria; type: cell-based
Description: as §2

S. pneumoniae A15069 = test: In vitro activity against fastidious bacteria; type: cell-based; details: Streptococcus pneumoniae, A15069
Description: as §2

S. aureus Terajima = test: MIC, agar dilution technique (Mueller-Hinton Agar); type: cell-based; details: Staphylococcus aureus, Gp-Ia, penicillin sensitive, read-out: Minimum Inhibitory Concentration
Description: (§3) Each of these groups of organisms is constituted of five individual strains of microorganism. The Gp-Ia organisms are Gram-positive staphylococci which are sensitive to penicillin. The Gp-Ib organisms are Gram-positive staphylococci which are resistant to penicillin and produce penicillinase. The Gn-Ia organisms are Gram-negative bacteria which are sensitive to ampicillin and cephalothin. The Gn-Ib organisms are Gram-negative bacteria which are resistant to ampicillin and cephalothin.

E. coli A20341-1 = test: MIC, agar dilution technique (Mueller-Hinton Agar); type: cell-based; details: Escherichia coli, A203411, read-out: Minimum Inhibitory Concentration
Description: as §3

S. aureus A9602 = test: MIC, agar dilution technique (Mueller-Hinton Agar); type: cell-based; details: Staphylococcus aureus
Description: as §3

S. aureus A15092 = test: MIC, agar dilution technique (Mueller-Hinton Agar); type: cell-based; details: Staphylococcus aureus, Gp-Ib, penicillin resistant, read-out: Minimum Inhibitory Concentration
Description: as §3

E. coli Juhl [3] = test: MIC, agar dilution technique (Mueller-Hinton Agar); type: cell-based; details: Escherichia coli, read-out: Minimum Inhibitory Concentration
Description: as §3

K. pneumoniae A20346 = test: MIC, agar dilution technique (Mueller-Hinton Agar); type: cell-based; details: Klebsiella pneumoniae, A20346, read-out: Minimum Inhibitory Concentration
Description: as §3

S. aureus A9497 = test: MIC, agar dilution technique (Mueller-Hinton Agar); type: cell-based; details: Staphylococcus aureus, Gp-Ia, penicillin sensitive, read-out: Minimum Inhibitory Concentration
Description: as §3

K. pneumoniae D11 = test: MIC, agar dilution technique (Mueller-Hinton Agar); type: cell-based; details: Klebsiella pneumoniae, D11, read-out: Minimum Inhibitory Concentration
Description: as §3

S. aureus BX-1633-2 = test: MIC, agar dilution technique (Mueller-Hinton Agar); type: cell-based; details: Staphylococcus aureus, BX16332, read-out: Minimum Inhibitory Concentration
Description: as §3

E. coli A9660 = test: MIC, agar dilution technique (Mueller-Hinton Agar); type: cell-based; details: Escherichia coli, A9660, read-out: Minimum Inhibitory Concentration
Description: as §3

E. coli A15148 = test: MIC, agar dilution technique (Mueller-Hinton Agar); type: cell-based; details: Escherichia coli
Description: as §3

E coli RGN-823 = test: MIC, agar dilution technique (Mueller-Hinton Agar); type: cell-based; details: Escherichia coli, RGN823, Gn-Ib, ampicillin and cephalothin resistant, read-out: Minimum Inhibitory Concentration
Description: as §3

S. aureus A9534 = test: MIC, agar dilution technique (Mueller-Hinton Agar); type: cell-based; details: Staphylococcus aureus, Gp-Ia, penicillin sensitive, read-out: Minimum Inhibitory Concentration
Description: as §3

S. aureus No. 193 = test: MIC, agar dilution technique (Mueller-Hinton Agar); type: cell-based; details: Staphylococcus aureus, Gp-Ib, penicillin resistant, read-out: Minimum Inhibitory Concentration
Description: as §3

S. aureus Smith [4] = test: MIC, agar dilution technique (Mueller-Hinton Agar); type: cell-based; details: Staphylococcus aureus, Gp-Ia, penicillin sensitive, read-out: Minimum Inhibitory Concentration
Description: as §3

S. aureus Russell = test: MIC, agar dilution technique (Mueller-Hinton Agar); type: cell-based; details: Staphylococcus aureus, read-out: Minimum Inhibitory Concentration
Description: as §3

S. pneumoniae Type I = test: In vitro activity against fastidious bacteria; type: cell-based; details: Streptococcus pneumoniae
Description: as §2

H. influenzae A22481 = test: In vitro activity against fastidious bacteria; type: cell-based; details: Haemophilus influenzae, ampicillin-resistant (ABPC-R)
Description: as §2

H. influenzae A22491 = test: In vitro activity against fastidious bacteria; type: cell-based; details: Haemophilus influenzae, ampicillin-resistant (ABPC-R)
Description: as §2

N. meningitidis A20049 = test: In vitro activity against fastidious bacteria; type: cell-based; details: Neisseria meningitidis, A20049
Description: as §2

S. pneumoniae Type III = test: In vitro activity against fastidious bacteria; type: cell-based; details: Streptococcus pneumoniae
Description: as §2

H. influenzae A22157 = test: In vitro activity against fastidious bacteria; type: cell-based; details: Haemophilus influenzae, ampicillin-resistant (ABPC-R)
Description: as §2

S. aureus A9601 = test: MIC, agar dilution technique (Mueller-Hinton Agar); type: cell-based; details: Staphylococcus aureus, A9601, read-out: Minimum Inhibitory Concentration
Description: as §3

P. mirabilis A9554 = test: MIC, agar dilution technique (Mueller-Hinton Agar); type: cell-based; details: Proteus mirabilis, A9554, read-out: Minimum Inhibitory Concentration
Description: as §3

P. mirabilis A9900 = test: MIC, agar dilution technique (Mueller-Hinton Agar); type: cell-based; details: Proteus mirabilis, A9900, read-out: Minimum Inhibitory Concentration
Description: as §3

K. pneumoniae A20345 = test: MIC, agar dilution technique (Mueller-Hinton Agar); type: cell-based; details: Klebsiella pneumoniae, Gn-Ib, ampicillin and cephalothin resistant, read-out: Minimum Inhibitory Concentration
Description: as §3

N[C@@H](C(=O)N[C@@H]1C(=O)N2C(C(=O)O)=C(Cl)CS[C@H]12)c1ccccc1 [cefaclor]
0.3%: dose excreted at 6 h (Mouse urinary recovery; 4-6 hr)
69%: dose excreted at 24 h (Mouse urinary recovery; total, read-out: Mouse urinary recovery Total)
1.5%: dose excreted at 24 h (Mouse urinary recovery; 6-24 hr, read-out: Mouse urinary recovery 6-24 hr)
0.20: PD50 (protective dose) (S. aureus Smith [2])
6.3 µg/mL: MIC (E. coli A20341-1) | MIC (S. aureus A15092) | MIC (K. pneumoniae A20346) | MIC (S. aureus BX-1633-2) | MIC (S. aureus No. 193)
1.1: PD50 (protective dose) (E. coli Juhl [1]; po)
25 µg/mL: MIC (E. coli A15148; A15148, read-out: Minimum Inhibitory Concentration) | MIC (E coli RGN-823)
0.2 µg/mL: MIC (S. pyogenes s-23) | MIC (S. pyogenes A20065) | MIC (S. pyogenes A9604) | MIC (S. pyogenes A15040) | MIC (S. pyogenes A20201) | MIC (S. pyogenes Dick)
0.4 µg/mL: MIC (S. aureus Terajima)
6.7%: dose excreted at 4 h (Mouse urinary recovery; 2-4 hr)
0.8: PD50 (protective dose) (E. coli Juhl [1]; im)
60%: dose excreted at 2 h (Mouse urinary recovery; 0-2 hr)
0.8 µg/mL: MIC (H. influenzae A9729; A9729) | MIC (N. meningitidis A21497) | MIC (S. pneumoniae Type II) | MIC (N. meningitidis A21495) | MIC (S. pneumoniae A9585) | MIC (H. influenzae A22482; A22482) | MIC (N. gonorrheae A15112) | MIC (H. influenzae A21523) | MIC (N. meningitidis A20048) | MIC (N. meningitidis A21487) | MIC (H. influenzae A9833; A9833) | MIC (H. influenzae A20193) | MIC (N. gonorrheae A20155) | MIC (H. influenzae A20177) | MIC (H. influenzae A22483; A22483) | MIC (N. gonorrheae A20143) | MIC (N. gonorrheae A20154) | MIC (E. coli Juhl [3]) | MIC (S. aureus A9497) | MIC (K. pneumoniae D11) | MIC (E. coli A9660) | MIC (S. aureus A9534) | MIC (S. aureus Smith [4])
3.1 µg/mL: MIC (S. pneumoniae A20759) | MIC (S. pneumoniae A15069) | MIC (S. aureus A9602; A9602, read-out: Minimum Inhibitory Concentration) | MIC (S. aureus Russell)

CC1=C(C(=O)O)N2C(=O)[C@@H](NC(=O)[C@H](N)c3ccccc3)[C@H]2SC1 [cephalexin]
6.3 µg/mL: MIC (E. coli A20341-1) | MIC (S. aureus A15092) | MIC (E. coli Juhl [3]) | MIC (K. pneumoniae A20346) | MIC (K. pneumoniae D11) | MIC (S. aureus BX-1633-2) | MIC (E. coli A9660) | MIC (K. pneumoniae A20345) | MIC (S. aureus No. 193)
100 µg/mL: MIC (E. coli A15148; E. coli A15148, Gn-Ib, ampicillin and cephalothin resistant, read-out: Minimum Inhibitory Concentration)
3.1 µg/mL: MIC (H. influenzae A9729; H. influenzae A9729, ampicillin-sensitive (ABPC-S), read-out: MIC) | MIC (N. meningitidis A21497) | MIC (N. meningitidis A21495) | MIC (H. influenzae A22482; H. influenzae A22482, ampicillin-sensitive (ABPC-S), read-out: MIC) | MIC (S. pneumoniae A20759) | MIC (N. meningitidis A20048) | MIC (S. pneumoniae Type I) | MIC (H. influenzae A22481) | MIC (N. meningitidis A21487) | MIC (H. influenzae A22491) | MIC (H. influenzae A9833; H. influenzae A9833, ampicillin-sensitive (ABPC-S), read-out: MIC) | MIC (N. meningitidis A20049) | MIC (S. pneumoniae Type III) | MIC (H. influenzae A22483; H. influenzae A22483, ampicillin-sensitive (ABPC-S), read-out: MIC) | MIC (S. pneumoniae A15069) | MIC (H. influenzae A22157) | MIC (S. aureus A9602; S. aureus A9602, Gp-Ib, penicillin resistant, read-out: Minimum Inhibitory Concentration) | MIC (S. aureus Russell; S. aureus Russell, Gp-Ib, penicillin resistant)
1.6 µg/mL: MIC (S. aureus Terajima) | MIC (S. aureus A9601) | MIC (S. aureus A9497) | MIC (S. aureus A9534) | MIC (S. aureus Smith [4])
12.5 µg/mL: MIC (P. mirabilis A9554) | MIC (P. mirabilis A9900) | MIC (E coli RGN-823)
0.8 µg/mL: MIC (S. pyogenes s-23) | MIC (S. pyogenes A20065) | MIC (S. pyogenes A9604) | MIC (S. pyogenes A15040) | MIC (S. pyogenes A20201) | MIC (S. pyogenes Dick)
